Here are results for 23 molecules from patent US7825256B2, “Inducible nitric oxide synthase dimerization inhibitors” (Kalypsys, Inc., priority 2004, dated 2010).

Where a name gives a salt, the structure may show the parent alone.

The target in one assay is T1, hiNOS (Homo sapiens, UniProt P35228).
T1 construct: expressed in transfected cells; host or cells: HEK293
Briefly: DAN assay, hiNOS expressed in transiently transfected HEK293 cells. The format is cell-based. The conditions noted are these: HEK293 cells transiently transfected with hiNOS. The method, boiled down: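 Human iNOS, nNOS or eNOS transiently expressed in HEK293 cells, with nNOS and eNOS needing added cofactors for activity. NO production is read as nitrite by fluorometry: 2,3-diaminonaphthalene forms fluorescent […], detecting 10 nM to 10 μM nitrite.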

For the next assay, the system named is rat. Briefly: Capsaicin test (topical capsaicin allodynia). The format is in vivo. An excerpt: Subcutaneous injection of dilute capsaicin into the rat hind paw produces transient but pronounced hyperalgesia, allodynia and pain. This effect may be mitigated by pretreatment with a suitable agent, such as a topical anaesthetic or analgesic, and the extent of this mitigation quantified by evaluation of pain-related behaviors in response to noxious or innocuous stimuli as described above; rats pretreated with a known analgesic display fewer pain and allodynia related behaviors than controls. Compounds may be evaluated for their efficacy as potential analgesics in this manner as well.
Male Lewis rats weighing between 180 and 250 grams are used. The right hind paw is dipped into vehicle (100% acetone) or compound in vehicle for 30 seconds and then allowed to air-dry for 30 sec. To prevent the animal from licking the compound off the paw, the paw is wiped twice with a wet paper towel. At 15 min after application of vehicle or compound, 0.1 mg in 10 μL capsaicin is injected into right hind paw. Measurement of allodynia is performed 0.5 to 1 hour after capsaicin injection.
One procedure for quantifying allodynia measures the rat behavioral response to presentation of von Frey filaments of increasing diameter. Each rat is placed in a small, clear cage on an elevated screen. Beginning with 4.31, the von Frey hair is presented perpendicularly to the right mid-plantar hind paw with sufficient force to cause slight buckling, for 6-8 seconds. If presentation lifts the hind paw it is disregarded, as it changes the nature of the stimulus. A positive response is noted if the paw is sharply withdrawn upon onset or offset of stimulus. Ambulation is considered an ambiguous response and the presentation is repeated. Stimuli are presented in a consecutive fashion. A positive response would call for the presentation of the immediately weaker weight filament next; likewise, no response would call for the immediately stronger. Presentations continue until a series of six consecutive responses from the first change is logged. The next rat is then tested. This procedure is standard in the art for the measurement of allodynia, but any other method known in the art which provides adequate sensitivity and reproducibility may be substituted.

Where [1] appears, read: at 0.5 hr after capsaicin injection.
Where [2] appears, read: at 1 hr after capsaicin injection.

As a reminder, the EC50 is the concentration that produces a half-maximal response. Higher therefore signals a need for much substance. The molecule `CN(CCCNCc1ccccc1)c1nc(-n2ccnc2)ns1` [Example 12, N′-Benzyl-N-(3-imidazol-1-yl-[1,2,4]thiadiazol-5-yl)-N-methyl-propane-1,3-diamine] displayed an EC50 on hiNOS of more than 50000 nM. In addition, the “Topical Capsaicin Allodynia” value in the assay on rat (setting [1]) is listed as “− at 0.5 hr ((−) = <15% inhibition)”; in the assay with rat (setting [2]), “− at 1 hr ((−) = <15% inhibition)”.
Turning to `CN(CCCN(CC(N)=O)c1nc(-n2ccnc2)ns1)Cc1ccc2c(c1)OCO2` [Example 59, 2-[[3-(Benzo[1,3]dioxol-5-ylmethyl-methyl-amino)-propyl]-(3-imidazol-1-yl-[1,2,4]thiadiazol-5-yl)-amino]-acetamide], at hiNOS, the EC50 was less than 1000 nM. Further, the “Topical Capsaicin Allodynia” value is listed as “+ at 0.5 hr ((+) = >15% inhibition)” with rat (setting [1]) and “+ at 1 hr ((+) = >15% inhibition)” in the assay with rat (setting [2]).
As for `Cc1cc(C(C)NCCNCc2ccc3c(c2)OCO3)nc(-n2ccnc2)n1` (centres unmarked) [Example 38, N-Benzo[1,3]dioxol-5-ylmethyl-N′-[1-(2-imidazol-1-yl-6-methyl-pyrimidin-4-yl)-ethyl]-ethane-1,2-diamine], the half-maximal effective concentration (EC50) at hiNOS is less than 1000 nM. For the same molecule, the “Topical Capsaicin Allodynia” value in the assay with rat (setting [1]) is “+ at 0.5 hr ((+) = >15% inhibition)”; with rat (setting [2]), “+ at 1 hr ((+) = >15% inhibition)”.
For `c1csc(CN(CCCNCc2ccc3c(c2)OCO3)c2nc(-n3ccnc3)ns2)c1` [Example 50, N′-Benzo[1,3]dioxol-5-ylmethyl-N-(3-imidazol-1-yl-[1,2,4]thiadiazol-5-yl)-N-thiophen-2-ylmethyl-propane-1,3-diamine], the “Topical Capsaicin Allodynia” value was “+ at 0.5 hr ((+) = >15% inhibition)” in the assay with rat (setting [1]) and “+ at 1 hr ((+) = >15% inhibition)” with rat (setting [2]).
`Cc1cc(C(C)(C)NCCNCc2ccc3c(c2)OCO3)nc(-n2ccnc2)n1` [Example 77, N-1-(2-(2-(1H-Imidazol-1-yl)-6-methylpyrimidin-4-yl)propan-2-yl)-N-2-(benzo[d][1,3]dioxol-5-ylmethyl)ethane-1,2-diamine hydrochloride]: on hiNOS, the concentration for a half-maximal effect (EC50) was less than 1000 nM.
`Cc1cc(C2CCC(=O)N2CCNCc2ccc3c(c2)OCCO3)nc(-n2ccnc2)n1` (centres unmarked) [Example 139, 1-{2-[(2,3-Dihydro-benzo[1,4]dioxin-6-ylmethyl)-amino]-ethyl}-5-(2-imidazol-1-yl-6-methyl-pyrimidin-4-yl)-pyrrolidin-2-one hydrochloride] had a 50% effective concentration (EC50) on hiNOS of less than 1000 nM.
In turn, `COc1cc(CN2CCCC2C(=O)NCc2cc(C)nc(-n3ccnc3)n2)cc(OC)c1` (centres unmarked) [Example 110, 1-(3,5-Dimethoxy-benzyl)-pyrrolidine-2-carboxylic acid (2-imidazol-1-yl-6-methyl-pyrimidin-4-ylmethyl)-amide] came in with a concentration giving a half-maximal response (EC50) on hiNOS of more than 50000 nM.
For the molecule `CN(CC1CCN(Cc2ccc3c(c2)OCO3)C1)c1nc(-n2ccnc2)ns1` (centres unmarked) [Example 46, (1-Benzo[1,3]dioxol-5-ylmethyl-pyrrolidin-3-ylmethyl)-(3-imidazol-1-yl-[1,2,4]thiadiazol-5-yl)-methyl-amine], the EC50 on hiNOS is less than 1000 nM.
Same read-out and setting: to `CN(CCCNCc1ccc2[nH]ccc2c1)c1nc(-n2ccnc2)ns1` [Example 18, N-(3-Imidazol-1-yl-[1,2,4]thiadiazol-5-yl)-N′-(1H-indol-5-ylmethyl)-N-methyl-propane-1,3-diamine] belongs more than 50000 nM; to `CN(CCCNCc1ccc(C(F)(F)F)cc1)c1nc(-n2ccnc2)ns1` [Example 11, N-(3-Imidazol-1-yl-[1,2,4]thiadiazol-5-yl)-N-methyl-N′-(4-trifluoromethyl-benzyl)-propane-1,3-diamine], more than 50000 nM; to `Cc1cc(C(C)NCCNC(C)c2ccc3c(c2)OCO3)nc(-n2ccnc2)n1` (centres unmarked) [Example 44, N-(1-Benzo[1,3]dioxol-5-yl-ethyl)-N′-[1-(2-imidazol-1-yl-6-methyl-pyrimidin-4-yl)-ethyl]-ethane-1,2-diamine], less than 1000 nM.
The molecule `O=C(NCCc1ccc2c(c1)OCO2)[C@H]1C[C@@H](O)CN1c1nc(-n2ccnc2)ns1` [Example 28, (2R,4R)-4-Hydroxy-1-(3-imidazol-1-yl-[1,2,4]thiadiazol-5-yl)-pyrrolidine-2-carboxylic acid (2-benzo[1,3]dioxol-5-yl-ethyl)-amide] yielded an EC50 at hiNOS of less than 1000 nM. The entries for the “Topical Capsaicin Allodynia” value with rat (setting [1]) and in the assay with rat (setting [2]) were “+ at 0.5 hr ((+) = >15% inhibition)” and “+ at 1 hr ((+) = >15% inhibition)”, respectively.
In turn, `CN(CCCNCc1ccc(Cl)cc1)c1nc(-n2ccnc2)ns1` [Example 7, N′-(4-Chloro-benzyl)-N-(3-imidazol-1-yl-[1,2,4]thiadiazol-5-yl)-N-methyl-propane-1,3-diamine] registered a concentration giving a half-maximal response (EC50) at hiNOS of less than 50000 nM.
Consider `Cc1cc(CNC(=O)NCCc2ccc3c(c2)OCO3)nc(-n2ccnc2)n1` [Example 13, 1-(2-Benzo[1,3]dioxol-5-yl-ethyl)-3-(2-imidazol-1-yl-6-methyl-pyrimidin-4-ylmethyl)-urea], for which the EC50 on hiNOS was less than 1000 nM. Moreover, the “Topical Capsaicin Allodynia” value is given as “− at 0.5 hr ((−) = <15% inhibition)” in the assay on rat (setting [1]) and “+ at 1 hr ((+) = >15% inhibition)” in the assay on rat (setting [2]).
Regarding `Cc1cc(CNC(=O)C2CCCN2Cc2ccc(OC(C)C)cc2)nc(-n2ccnc2)n1` (centres unmarked) [Example 115, 1-(4-Isopropoxy-benzyl)-pyrrolidine-2-carboxylic acid (2-imidazol-1-yl-6-methyl-pyrimidin-4-ylmethyl)-amide], the EC50 at hiNOS was more than 50000 nM.
Molecule `CN(CCCN)c1nc(-n2ccnc2)ns1` [Example 6, N-1-(3-Imidazol-1-yl-[1,2,4]thiadiazol-5-yl)-N-1-methyl-propane-1,3-diamine] showed a concentration giving a half-maximal response (EC50) on hiNOS of more than 50000 nM.
Regarding `CCOC(=O)C(CC(=O)NCCc1ccc2c(c1)OCO2)c1nc(-n2ccnc2)ns1` (centres unmarked) [Example 67, N-(2-Benzo[1,3]dioxol-5-yl-ethyl)-2-(3-imidazol-1-yl-[2,4]thiadiazol-5-yl)-succinamic acid ethyl ester], the EC50 on hiNOS was less than 1000 nM.
`Cc1cc(CNC(=O)CNCc2ccc3c(c2)OCO3)nc(-n2ccnc2)n1` [Example 14] had an EC50 on hiNOS of less than 1000 nM.
On hiNOS, `O=C(NCCc1ccc2c(c1)OCO2)[C@H]1CCCN1c1nc(-n2ccnc2)ns1` [Example 29, (R)-1-(3-Imidazol-1-yl-[1,2,4]thiadiazol-5-yl)pyrrolidine-2-carboxylic acid (2-benzo[1,3]dioxol-5-yl-ethyl)-amide] returned an EC50 of less than 1000 nM. The “Topical Capsaicin Allodynia” value is reported as “− at 0.5 hr ((−) = <15% inhibition)” in the assay with rat (setting [1]) and “+ at 1 hr ((+) = >15% inhibition)” with rat (setting [2]).
On hiNOS, `Cc1cc(C(C)NCCNCc2ccc(-n3cccc3)cc2)nc(-n2ccnc2)n1` (centres unmarked) [Example 97, N-[1-(2-Imidazol-1-yl-6-methyl-pyrimidin-4-yl)-ethyl]-N′-(4-pyrrol-1-yl-benzyl)-ethane-1,2-diamine] registered an EC50 of less than 50000 nM.
Turning to `Cc1cc(C(C)NCCOCc2ccc3c(c2)OCO3)nc(-n2ccnc2)n1` (centres unmarked) [Example 43, [2-(Benzo[1,3]dioxol-5-ylmethoxy)-ethyl]-[1-(2-imidazol-1-yl-6-methyl-pyrimidin-4-yl)-ethyl]-amine], the EC50 at hiNOS is less than 1000 nM.
At hiNOS, `Cc1cc(C2CCCN2CCNCc2ccc3c(c2)OCCO3)nc(-n2ccnc2)n1` (centres unmarked) [Example 92, (2,3-Dihydro-benzo[1,4]dioxin-6-ylmethyl)-{2-[2-(2-imidazol-1-yl-6-methyl-pyrimidin-4-yl)-pyrrolidin-1-yl]-ethyl}-amine] had an EC50 of less than 1000 nM.
In the case of `c1cn(-c2nsc(N(CCCNCc3ccc4c(c3)OCO4)Cc3nccs3)n2)cn1` [Example 49, N′-Benzo[1,3]dioxol-5-ylmethyl-N-(3-imidazol-1-yl-[1,2,4]thiadiazol-5-yl)-N-thiazol-2-ylmethyl-propane-1,3-diamine], at hiNOS, the EC50 is less than 1000 nM. The results for the “Topical Capsaicin Allodynia” value in the assay with rat (setting [1]) and in the assay with rat (setting [2]) were “+ at 0.5 hr ((+) = >15% inhibition)” and “+ at 1 hr ((+) = >15% inhibition)”, respectively.
